# Laboratory results as given in patent publication US20250289789A1, “REVERSIBLE LYSINE COVALENT MODIFIERS OF CDK2 AND USES THEREOF” (Terremoto Biosciences, Inc., priority 2023, published 2025).
# Test: Solubility determination in PBS pH 7.4
# Format: physicochemical
# Details: aqueous buffer, kinetic from dmso stock; PBS pH 7.4, 2 hours, 25° C.; the listed prodrug
# Experimental: Stock solutions (10 mM DMSO, 30 μL) of each sample were placed into 96-well plate, along with 970 μL of PBS pH 7.4 were added into each vial of the cap-less solubility sample plate. The assay was performed in duplicate. A stir stick was added to each well and sealed using a molded PTFE/Silicone plug. Then the Solubility Sample plate was transferred to an Eppendorf Thermomixer Comfort plate shaker and shaken at 1100 RPM for 2 hours at 25° C. After completion the plugs and stir sticks were removed and the samples were transferred into a filter plate and filtered using a vacuum manifold. 5 μL aliquots of filtrate were taken and diluted with 5 μL DMSO and 490 μL of a 1:1 v/v mixture of H2O and acetonitrile. 200 μL of diluent was transferred to a new 96-well plate for LC-MS/MS analysis. The solution was analyzed and quantified against a standard of known concentration in DMSO using LC coupled with Mass spectral peak for identification and quantitation.
row,SMILES,solubility at 2 h
1,"COc1cc(O)c(/C=N/C(C)C)c2c1CC(C(=O)Nc1cc([C@H]3CC[C@@H](OC(=O)NC(C)(C)C)C3)[nH]n1)C2 (single isomer, unassigned) [Compound 283a, (1R,3S)-3-(3-((*)-5-hydroxy-4-((E)-(isopropylimino)methyl)-7-methoxy-2,3-dihydro-1H-indene-2-carboxamido)-1H-pyrazol-5-yl)cyclopentyl tert-butylcarbamate]",149 µM
2,"COc1cc(O)c(/C=N/C(C)C)c2c1CC(C(=O)Nc1cc([C@H]3CC[C@@H](OC(=O)N(C)N(C)C)C3)n[nH]1)C2 (single isomer, unassigned) [Compound 284a, (1R,3S)-3-(5-((*)-5-hydroxy-4-((E)-(isopropylimino)methyl)-7-methoxy-2,3-dihydro-1H-indene-2-carboxamido)-1H-pyrazol-3-yl)cyclopentyl 1,2,2-trimethylhydrazine-1-carboxylate]",253 µM
3,"COc1cc(O)c(/C=N/C(C)C)c(OCC(=O)Nc2cc([C@H]3CC[C@@H](OC(=O)NC(C)C)C3)[nH]n2)c1 [Compound 64a, (1R,3S)-3-(3-(2-(3-hydroxy-2-((E)-(isopropylimino)methyl)-5-methoxyphenoxy)acetamido)-1H-pyrazol-5-yl)cyclopentyl isopropylcarbamate]",215 µM
4,"CCC/N=C/c1c(O)cc(OC)cc1OCC(=O)Nc1cc([C@H]2CC[C@@H](OC(=O)NC(C)C)C2)[nH]n1 [Compound 64b, (1R,3S)-3-(3-(2-(3-hydroxy-5-methoxy-2-((E)-(propylimino)methyl)phenoxy)acetamido)-1H-pyrazol-5-yl)cyclopentyl isopropylcarbamate]",79 µM
5,"CC/N=C/c1c(O)cc(OC)cc1OCC(=O)Nc1cc([C@H]2CC[C@@H](OC(=O)NC(C)C)C2)[nH]n1 [Compound 64c, (1R,3S)-3-(3-(2-(2-((E)-(ethylimino)methyl)-3-hydroxy-5-methoxyphenoxy)acetamido)-1H-pyrazol-5-yl)cyclopentyl isopropylcarbamate]",246 µM
6,"CCCC/N=C/c1c(O)cc(OC)cc1OCC(=O)Nc1cc([C@H]2CC[C@@H](OC(=O)NC(C)C)C2)[nH]n1 [Compound 64d, (1R,3S)-3-(3-(2-(2-((E)-(butylimino)methyl)-3-hydroxy-5-methoxyphenoxy)acetamido)-1H-pyrazol-5-yl)cyclopentyl isopropylcarbamate]",67 µM
7,"CCOC(=O)C/N=C/c1c(O)cc(OC)cc1OCC(=O)Nc1cc([C@H]2CC[C@@H](OC(=O)NC(C)C)C2)[nH]n1 [Compound 64p, Ethyl 2-(((E)-2-hydroxy-6-(2-((5-((1S,3R)-3-((isopropylcarbamoyl)oxy)cyclopentyl)-1H-pyrazol-3-yl)amino)-2-oxoethoxy)-4-methoxybenzylidene)amino)acetate]",4.8 µM
8,"COc1cc(O)c(/C=N/CCS(=O)(=O)O)c(OCC(=O)Nc2cc([C@H]3CC[C@@H](OC(=O)NC(C)C)C3)[nH]n2)c1 [Compound 64q, 2-(((E)-2-hydroxy-6-(2-((5-((1S,3R)-3-((isopropylcarbamoyl)oxy)cyclopentyl)-1H-pyrazol-3-yl)amino)-2-oxoethoxy)-4-methoxybenzylidene)amino)ethane-1-sulfonic acid]",243 µM
9,"CC(C)/N=C/c1c(O)cccc1OCC(=O)Nc1cc([C@H]2CC[C@@H](OC(=O)NC3(C)CC3)C2)[nH]n1 [Compound 82a, (1R,3S)-3-(3-(2-(3-hydroxy-2-((E)-(isopropylimino)methyl)phenoxy)acetamido)-1H-pyrazol-5-yl)cyclopentyl (1-methylcyclopropyl)carbamate]",34 µM
10,"COc1cc(O)c(/C=N/C(C)C)c(OCC(=O)Nc2cc([C@H]3CC[C@@H](OC(=O)NC(C)(C)C)C3)[nH]n2)c1 [Compound 128a, (1R,3S)-3-(3-(2-(3-hydroxy-2-((E)-(isopropylimino)methyl)-5-methoxyphenoxy)acetamido)-1H-pyrazol-5-yl)cyclopentyl tert-butylcarbamate]",191 µM
11,"Cc1cc(O)c(/C=N/C(C)C)c(OCC(=O)Nc2cc([C@H]3CC[C@@H](OC(=O)NC4(C)CC4)C3)[nH]n2)c1 [Compound 145a, (1R,3S)-3-(3-(2-(3-hydroxy-2-((E)-(isopropylimino)methyl)-5-methylphenoxy)acetamido)-1H-pyrazol-5-yl)cyclopentyl (1-methylcyclopropyl)carbamate]",68 µM
12,"COc1cc(O)c(/C=N/C(C)C)c(OCC(=O)Nc2cc([C@H]3CC[C@@H](OC(=O)N(C)N(C)C)C3)[nH]n2)c1 [Compound 172a, (1R,3S)-3-(3-(2-(3-hydroxy-2-((E)-(isopropylimino)methyl)-5-methoxyphenoxy)acetamido)-1H-pyrazol-5-yl)cyclopentyl 1,2,2-trimethylhydrazine-1-carboxylate]",227 µM
13,"CCCNC(=O)O[C@@H]1CC[C@H](c2cc(NC(=O)COc3cc(OC)cc(O)c3/C=N/C(C)C)n[nH]2)C1 [Compound 221a, (1R,3S)-3-(3-(2-(3-hydroxy-2-((E)-(isopropylimino)methyl)-5-methoxyphenoxy)acetamido)-1H-pyrazol-5-yl)cyclopentyl propylcarbamate]",156 µM
14,"COc1cc(O)c(/C=N/C(C)C)c(OCC(=O)Nc2cc([C@H]3C[C@@H](OC(=O)NC(C)C)C3)[nH]n2)c1 [Compound 223a, (1s,3s)-3-(3-(2-(3-hydroxy-2-((E)-(isopropylimino)methyl)-5-methoxyphenoxy)acetamido)-1H-pyrazol-5-yl)cyclobutyl isopropylcarbamate]",6.7 µM
15,"COc1cc(O)c(/C=N/C(C)C)c(OCC(=O)Nc2cc([C@H]3CC[C@@H](OC(=O)NC4(C)CC4)C3)[nH]n2)c1 [Compound 251a, (1R,3S)-3-(3-(2-(3-hydroxy-2-((E)-(isopropylimino)methyl)-5-methoxyphenoxy)acetamido)-1H-pyrazol-5-yl)cyclopentyl (1-methylcyclopropyl)carbamate]",50 µM
16,"CCC/N=C/c1c(O)cc(OC)cc1OCC(=O)Nc1cc([C@H]2CC[C@@H](OC(=O)NC3(C)CC3)C2)[nH]n1 [Compound 251b, (1R,3S)-3-(3-(2-(3-hydroxy-5-methoxy-2-((E)-(propylimino)methyl)phenoxy)acetamido)-1H-pyrazol-5-yl)cyclopentyl (1-methylcyclopropyl)carbamate]",41 µM
17,"CC/N=C/c1c(O)cc(OC)cc1OCC(=O)Nc1cc([C@H]2CC[C@@H](OC(=O)NC3(C)CC3)C2)[nH]n1 [Compound 251c, (1R,3S)-3-(3-(2-(2-((E)-(ethylimino)methyl)-3-hydroxy-5-methoxyphenoxy)acetamido)-1H-pyrazol-5-yl)cyclopentyl (1-methylcyclopropyl)carbamate]",48 µM
